The test system of data set [1] is Mycobacterium tuberculosis H37Rv. More on the design: method as in Souza et al., 2007. Particulars: ref Souza et al., 2007; cited from earlier work.
The subject of a further data set is J774 macrophages. The arrangement: method as in Souza et al., 2007. The note with it: ref Souza et al., 2007, cited from earlier work.
The next data set concerns Candida albicans. Nature of the data set: Modified Kirby-Bauer disc diffusion (antifungal). The note with it: for Inhibition zone diameter: Candida albicans (fungi). The data set is classed as cell-based. How it is done: (§1) The antimicrobial activity of compounds 5a-k was assessed using a modified Kirby-Bauer disc diffusion method ([Alkhaldi et al., 2019]; [Al-Wahaibi et al., 2021b]; [Manso et al., 2021]; [Ecevit et al., 2022]). […] Ciprofloxacin was used as a reference medication. […] Compounds 5f-k had promising antibacterial action against Gram-positive and Gram-negative bacteria, ranging from 75% to 115% of typical ciprofloxacin levels.
(§2) In addition, the synthesized compounds 5a-k were evaluated for their antifungal activity against A. flavus and C. albicans, with Fluconazole as a reference medication (Table 1). […]
(§3) incubated at 35-37 °C for 24-48 hours and yeast as Candida albicans (ATCC 7102) incubated at 30 °C for 24-48 hours and, then the diameters of the inhibition zones were measured in millimeters. Standard discs of ciprofloxacin (Antibacterial agent), Fluconazole (Antifungal agent) served as positive controls for antimicrobial activity but filter discs impregnated with 10 µl of solvent (distilled water, chloroform, DMSO) were used as a negative control. Blank paper disks (Schleicher & Schuell, Spain) with a diameter of 8.0 mm were impregnated 10µ of tested concentration of the stock solutions. When a filter paper disc impregnated with a tested chemical is placed on agar the chemical will diffuse from the disc into the agar. This diffusion will place the chemical in the agar only around the disc. The solubility of the chemical and its molecular size will determine the size of the area of chemical infiltration around the disc. If an organism is placed on the agar it will not grow in the area around the disc if it is susceptible to the chemical. This area of no growth around the disc is known as a “Zone of inhibition” or" Clear zone". For the disc diffusion, the zone diameters were measured with slipping calipers of the National Committee for Clinical Laboratory […]
(§4) Agar-based methods such as E-test and disk diffusion can be good alternatives because they are simpler and faster than broth-based methods. […]

A further data set relates to Aspergillus flavus. Put plainly: Modified Kirby-Bauer disc diffusion (antifungal). The data set is classed as cell-based. The note with it: Aspergillus flavus (fungi). How it is done: as §1, §2
Standard discs of ciprofloxacin (Antibacterial agent), Fluconazole (Antifungal agent) served as positive controls for antimicrobial activity but filter discs impregnated with 10 µl of solvent (distilled water, chloroform, DMSO) were used as a negative control. Blank paper disks (Schleicher & Schuell, Spain) with a diameter of 8.0 mm were impregnated 10µ of tested concentration of the stock solutions. When a filter paper disc impregnated with a tested chemical is placed on agar the chemical will diffuse from the disc into the agar. This diffusion will place the chemical in the agar only around the disc. The solubility of the chemical and its molecular size will determine the size of the area of chemical infiltration around the disc. If an organism is placed on the agar it will not grow in the area around the disc if it is susceptible to the chemical. This area of no growth around the disc is known as a “Zone of inhibition” or" Clear zone". For the disc diffusion, the zone diameters were measured with slipping calipers of the National Committee for Clinical Laboratory […]
as §4

For a further data set, the system named is Staph. aureus. Nature of the data set: Modified Kirby-Bauer disc diffusion. The data set is classed as cell-based, Staphylococcus aureus. Particulars: for Inhibition zone diameter: Staph. aureus (G+). The procedure: (§5) The antimicrobial activity of compounds 5a-k was assessed using a modified Kirby-Bauer disc diffusion method ([Alkhaldi et al., 2019]; [Al-Wahaibi et al., 2021b]; [Manso et al., 2021]; [Ecevit et al., 2022]). […] Ciprofloxacin was used as a reference medication. […] Compounds 5f-k had promising antibacterial action against Gram-positive and Gram-negative bacteria, ranging from 75% to 115% of typical ciprofloxacin levels. […]
as §3, §4

The test system of data set [2] is Pseudomonas aeruginosa. Put plainly: Modified Kirby-Bauer disc diffusion. The data set is classed as cell-based. The note with it: Pseudomonas aeruginosa (G−). The procedure: as §5, §3, §4
Data set [3] deals with Escherichia Coli. Nature of the data set: Modified Kirby-Bauer disc diffusion. The data set is classed as cell-based. Particulars: Escherichia Coli (G−). The procedure:
as §5, §3, §4

For data set [4], the system named is Bacillus subtilis. Put plainly: Modified Kirby-Bauer disc diffusion. The data set is classed as cell-based. The note with it: Bacillus subtilis (G+). How it is done:
as §5, §3, §4

The subject of data set [5] is Gram-positive and Gram-negative bacteria. Nature of the data set: Disc diffusion, activity relative to ciprofloxacin over the bacterial panel. The data set is classed as cell-based. The note with it: Gram-negative strains. The procedure:
as §5
incubated at 35-37 °C for 24-48 hours and yeast as Candida albicans (ATCC 7102) incubated at 30 °C for 24-48 hours and, then the diameters of the inhibition zones were measured in millimeters. Standard discs of ciprofloxacin (Antibacterial agent), Fluconazole (Antifungal agent) served as positive controls for antimicrobial activity but filter discs impregnated with 10 µl of solvent (distilled water, chloroform, DMSO) were used as a negative control. Blank paper disks (Schleicher & Schuell, Spain) with a diameter of 8.0 mm were impregnated 10µ of tested concentration of the stock solutions. When a filter paper disc impregnated with a tested chemical is placed on agar the chemical will diffuse from the disc into the agar. This diffusion will place the chemical in the agar only around the disc. […] For the disc diffusion, the zone diameters were measured with slipping calipers of the National Committee for Clinical Laboratory […]

In another data set the target is T1, E. coli topoisomerase IV (Escherichia coli, UniProt P20083).
T1 construct: purchased Inspiralis
T1 sequence (P20083 whole entry): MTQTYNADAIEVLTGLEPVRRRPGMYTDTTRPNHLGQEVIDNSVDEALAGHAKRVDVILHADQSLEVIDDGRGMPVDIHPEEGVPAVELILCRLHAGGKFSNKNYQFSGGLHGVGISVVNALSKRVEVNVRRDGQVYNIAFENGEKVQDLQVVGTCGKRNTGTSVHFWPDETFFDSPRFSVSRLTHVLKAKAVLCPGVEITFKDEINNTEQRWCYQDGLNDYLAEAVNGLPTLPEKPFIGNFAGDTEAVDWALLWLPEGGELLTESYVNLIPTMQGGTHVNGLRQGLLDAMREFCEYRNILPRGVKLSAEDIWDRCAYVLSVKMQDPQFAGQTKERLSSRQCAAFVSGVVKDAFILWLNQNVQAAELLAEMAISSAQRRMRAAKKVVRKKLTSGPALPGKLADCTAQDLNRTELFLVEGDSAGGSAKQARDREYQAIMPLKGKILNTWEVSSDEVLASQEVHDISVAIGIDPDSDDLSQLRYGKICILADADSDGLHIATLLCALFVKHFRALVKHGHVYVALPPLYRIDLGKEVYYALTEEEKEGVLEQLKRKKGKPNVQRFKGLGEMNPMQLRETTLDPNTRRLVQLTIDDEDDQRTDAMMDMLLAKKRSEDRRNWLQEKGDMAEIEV
T1 sequence (P0AFI2 whole entry, further chain): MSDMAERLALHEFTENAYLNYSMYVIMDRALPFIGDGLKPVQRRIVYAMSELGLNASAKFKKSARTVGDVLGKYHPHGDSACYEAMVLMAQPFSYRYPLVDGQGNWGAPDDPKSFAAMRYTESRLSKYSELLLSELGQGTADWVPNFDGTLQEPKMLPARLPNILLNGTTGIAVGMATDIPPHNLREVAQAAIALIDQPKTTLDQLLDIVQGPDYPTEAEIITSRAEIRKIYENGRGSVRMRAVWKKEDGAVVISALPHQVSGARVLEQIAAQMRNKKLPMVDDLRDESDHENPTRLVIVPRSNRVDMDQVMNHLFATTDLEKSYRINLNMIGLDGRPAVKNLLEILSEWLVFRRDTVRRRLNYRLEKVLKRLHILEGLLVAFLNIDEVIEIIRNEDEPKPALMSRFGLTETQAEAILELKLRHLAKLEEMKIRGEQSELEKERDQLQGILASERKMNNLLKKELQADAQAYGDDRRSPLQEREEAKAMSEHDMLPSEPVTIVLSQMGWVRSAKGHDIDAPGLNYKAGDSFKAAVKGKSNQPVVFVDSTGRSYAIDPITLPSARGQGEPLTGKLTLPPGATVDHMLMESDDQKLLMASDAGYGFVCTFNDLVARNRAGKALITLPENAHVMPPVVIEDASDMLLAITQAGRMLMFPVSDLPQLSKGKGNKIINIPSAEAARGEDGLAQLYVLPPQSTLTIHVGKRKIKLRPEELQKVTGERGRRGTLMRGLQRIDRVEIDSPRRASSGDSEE
Nature of the data set: E. coli topoisomerase IV inhibitory assay (Inspiralis kit). The data set is classed as biochemical. Particulars: at 1 µM of the compound. How it is done:
(§6) NaCl and 50 mM MgCl2) was added to terminate the enzymatic reaction. After
(§7) Initial screening was done at 100 or 10 μM concentration
A single compound was designated with four wells followed by incubation of
After incubation, medium was removed completely from the […]

In a further data set the target is T2, E. coli DNA gyrase (Escherichia coli, UniProt P0AES6).
T2 construct: purchased Inspiralis
Nature of the data set: E. coli DNA gyrase supercoiling assay (Inspiralis kit). Particulars: at 1 µM of the compound. The data set is classed as biochemical. How it is done:
The fluorescence was measured with a microplate reader (BioTek Synergy H4,
as §6, §7

The subject of the next data set is Staphylococcus aureus. Put plainly: MIC, twofold serial dilution, 96-well microtiter plate. The data set is classed as cell-based. Particulars: Staphylococcus aureus (G+). How it is done: (§8) The antibacterial activity of compounds 5f, 5h, 5i, and 5k were evaluated using a twofold serial dilution method ([Parasa et al., 2011]), with ciprofloxacin as the reference compound. The MIC values for certain compounds were obtained through dose-response experiments. The stated values are based on a minimum of two independent experiments, with three replicates per concentration in each experiment. The experimental details can be found in Appendix A (Supplementary Material). […]
(§9) 4.2.2. Minimum inhibitory concentration assay
(§10) In 96-well microtiter plates and […] of fresh bacterial culture of a single McFarland unit overnight, a double serial dilution of each compound […] in sterile standard saline were prepared to every single source well. Ciprofloxacin antibiotic (5 mg / mL - 1) and normal saline were included as standard reference in each assay. The plates were incubated at 37 0C overnight. As an indicator of bacterial growth, […] of p-iodonitrotetrazolium violet (INT) was added to each well and incubated at 37 0C for 30 […]
(§11) min. MIC values are recorded as the lowest concentration of the extract that completely inhibited bacterial growth that is clear well. The colorless tetrazolidium salt acts as an electron accepter and is reduced to a red colored formazan product by biological activity organisms. Where bacterial growth was inhibited, the solution in the well remained clear after incubation with INT. […]
(§12) SybrGOLD in T10 buffer (10 mM Tris HCl with pH 8.0 and 1 mM EDTA) was added. […]

For data set [6], the system named is Pseudomonas aeruginosa. The data set is described as above. The class given is cell-based. Particulars: Pseudomonas aeruginosa (G−). How it is done: as §8, §9, §10, §11, §12
Data set [7] has as its system Escherichia Coli. The description is as above. The note with it: Escherichia coli (G−). The class given is cell-based. The procedure:
as §8, §9, §10, §11, §12

For data set [8], the system named is Bacillus subtilis. The data set is described as above. The class given is cell-based. Particulars: Bacillus subtilis (G+). How it is done:
as §8, §9, §10, §11, §12

≈ marks a conversion by molar mass, not a printed value.

For `Oc1ccccc1C=Nc1ccccc1O` [I, N-(salicylidene)-2-hydroxyaniline], the MIC in data set [1] was 8 µg/mL (≈ 37.5 µM). The “cytotoxic effects on J774 macrophages” value with J774 macrophages (1,000 μg/mL) was “did not show cytotoxic effects”. For the same compound, the viable macrophage cells entry with J774 macrophages (J774 macrophages, 1,000 μg/mL) is on record as “Over 80%”.
Turning to “N'-((E)-3-Chlorobenzylidene)-4-(4-(2-((Z)-3-chlorobenzylidene)hydrazine-1-carbonyl)-3-hydroxybenzyl)-2-hydroxybenzohydrazide [Compound 5g]”, the Inhibition zone diameter came to 0.0 mm/mg Sample in the data set with Candida albicans; 0.0 mm/mg Sample in the data set with Aspergillus flavus; 35 mm/mg Sample in the data set with Staph. aureus; 30 mm/mg Sample in the data set with Pseudomonas aeruginosa [2]; 30 mm/mg Sample with Escherichia Coli [3]; 33 mm/mg Sample in the data set on Bacillus subtilis [4]. The “activity compared to ciprofloxacin” value in the data set on Staph. aureus (S. aureus) came out at 88%. The same compound yielded an activity of ciprofloxacin in data set [5] of 75%.
For “N'-((E)-4-Methylbenzylidene)-4-(4-(2-((Z)-4-methylbenzylidene)hydrazine-1-carbonyl)-3-hydroxybenzyl)-2-hydroxybenzohydrazide [Compound 5f]”, the “RA (residual activity of the enzyme) E. Coli Topo IV” value at E. coli topoisomerase IV worked out at 77%. Further, the “activity as % of fluconazole” value in the data set with Candida albicans (C. albicans) is reported as 38%. In addition, the Inhibition zone diameter with Candida albicans is 15 mm/mg Sample; with Aspergillus flavus it was 0.0 mm/mg Sample; in the data set with Staph. aureus, 37 mm/mg Sample; with Pseudomonas aeruginosa [2], 33 mm/mg Sample; in the data set on Escherichia Coli [3], 33 mm/mg Sample; with Bacillus subtilis [4], 37 mm/mg Sample. The “RA (residual activity of the enzyme) E. Coli DNA gyrase” value on E. coli DNA gyrase was determined as 53%. Also, the “Minimum inhibitory concentration (MIC)” value was found to be 0.070 µg/mL in the data set with Staphylococcus aureus, 0.125 µg/mL with Pseudomonas aeruginosa [6], 0.125 µg/mL in the data set with Escherichia Coli [7] and 0.125 µg/mL in the data set with Bacillus subtilis [8].

Source of the values: PMC11191877, “Discovery of new Schiff bases of the disalicylic acid scaffold as DNA gyrase and topoisomerase IV inhibitors endowed with antibacterial properties” (Frontiers in Chemistry, 2024).
